The target in the assay is T1, ligand binding domain of human FXR (Homo sapiens, UniProt Q96RI1).
T1 construct: purchased Thermofisher (LanthaScreen) PV4833
T1 sequence (Q96RI1 262-486 limits assumed): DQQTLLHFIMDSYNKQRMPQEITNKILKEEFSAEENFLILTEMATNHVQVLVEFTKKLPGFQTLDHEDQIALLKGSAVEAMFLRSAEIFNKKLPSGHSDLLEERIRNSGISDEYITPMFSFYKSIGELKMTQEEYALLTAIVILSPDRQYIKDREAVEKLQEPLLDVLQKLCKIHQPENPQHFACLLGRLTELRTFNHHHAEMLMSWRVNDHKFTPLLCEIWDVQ
Kind of assay: biochemical. The settings on record: for Emax: extent of activation relative to GW4064, read-out: Ligand Binding % Efficacy; for EC50: −log EC50, concentration required to produce 50% activation, FRET 520 nm/495 nm, 1 hour at room temperature, read-out: Ligand Binding pEC50 (converted). As for the experimental part: The affinity of FXR ligands for the ligand binding domain of FXR was determined using a commercially available human FXR ligand binding assay (LanthaScreen, Thermofisher Cat #PV4833). […] Binding of FXR ligands to the FXR ligand binding domain promotes binding of the fluorescein-labelled SRC2-2 peptide. This causes a FRET signal between the terbium-labelled anti-GST antibody and the fluorescein-labelled SRC peptide which are both bound to the FXR ligand binding domain.
Test compounds are dissolved in DMSO and a 3-fold serial dilution series is generated, then further diluted into assay buffer. The compounds are mixed with 5 nM GST-tagged FXR ligand binding domain, 5 nM Tb-labelled anti-GST antibody and 500 nM fluorescein-labelled SRC2-2 peptide in a pH7.4 buffer. The reaction is incubated at room temperature for 1 hour, then the FRET signal is measured as the ratio of the 520 nm/495 nm emission following excitation at 340 nm. The change in FRET signal is plotted against the test article concentration and fit to a 3-parameter logistical equation.

The structures appear in SMILES notation.

On to `O=C(O)c1c(F)cc(N2C[C@@H]3C[C@H]2C[C@H]3OCc2c(C3CC3)cnn2-c2c(Cl)cccc2Cl)cc1F` [Compound I-3, 4-[(1S,4S,5R)-5-{[4-cyclopropyl-1-(2,6-dichlorophenyl)-1H-pyrazol-5-yl]methoxy}-2-azabicyclo[2.2.1]heptan-2-yl]-2,6-difluorobenzoic acid], for which the Emax was determined as 156% and the EC50 was 39.8 nM.
Taken in the same sequence, the figures for `O=C(O)c1ccc(N2C[C@@H]3C[C@H]2C[C@H]3OCc2c(C3CC3)cnn2-c2c(Cl)cccc2Cl)nc1` [Compound I-4, 6-[(1S,4S,5R)-5-{[4-cyclopropyl-1-(2,6-dichlorophenyl)-1H-pyrazol-5-yl]methoxy}-2-azabicyclo[2.2.1]heptan-2-yl]pyridine-3-carboxylic acid] were 132% and 100 nM.
For `O=C(O)c1ccc(N2C[C@@H]3C[C@H]2C[C@H]3OCc2c(C3CC3)cnn2-c2c(Cl)cccc2Cl)cn1` [Compound I-5, 5-[(1S,4S,5R)-5-{[4-cyclopropyl-1-(2,6-dichlorophenyl)-1H-pyrazol-5-yl]methoxy}-2-azabicyclo[2.2.1]heptan-2-yl]pyridine-2-carboxylic acid] the same measures were 119% and 251 nM.
In the case of `O=C(O)c1ncc(N2C[C@@H]3C[C@H]2C[C@H]3OCc2c(C3CC3)cnn2-c2c(Cl)cccc2Cl)cn1` [Compound I-6, 5-[(1S,4S,5R)-5-{[4-cyclopropyl-1-(2,6-dichlorophenyl)-1H-pyrazol-5-yl]methoxy}-2-azabicyclo[2.2.1]heptan-2-yl]pyrimidine-2-carboxylic acid], the Emax worked out at 101%.
For the molecule `Cc1cccc(C)c1-n1ncc(C2CC2)c1CO[C@@H]1C[C@@H]2C[C@H]1CN2c1ccc(C(=O)O)c(F)c1` [Compound I-7, 4-[(1S,4S,5R)-5-{[4-cyclopropyl-1-(2,6-dimethylphenyl)-1H-pyrazol-5-yl]methoxy}-2-azabicyclo[2.2.1]heptan-2-yl]-2-fluorobenzoic acid], the Emax worked out at 134% and the EC50 is 25.1 nM.
Taken in the same sequence, the figures for `Cc1cccc(Cl)c1-n1ncc(C2CC2)c1CO[C@@H]1C[C@@H]2C[C@H]1CN2c1ccc(C(=O)O)c(F)c1` [Compound I-8, 4-[(1S,4S,5R)-5-{[1-(2-chloro-6-methylphenyl)-4-cyclopropyl-1H-pyrazol-5-yl]methoxy}-2-azabicyclo[2.2.1]heptan-2-yl]-2-fluorobenzoic acid] were 164% and 7.94 nM.
For `O=C(O)c1ccc(N2C[C@@H]3C[C@H]2C[C@H]3OCc2c(C3CC3)cnn2-c2c(F)cccc2Cl)cc1F` [Compound I-9, 4-[(1S,4S,5R)-5-{[1-(2-chloro-6-fluorophenyl)-4-cyclopropyl-1H-pyrazol-5-yl]methoxy}-2-azabicyclo[2.2.1]heptan-2-yl]-2-fluorobenzoic acid] the same measures were 164% and 39.8 nM.
Turning to `O=C(O)c1ccc(N2C(=O)[C@@H]3C[C@H]2C[C@H]3OCc2c(C3CC3)cnn2-c2c(Cl)cccc2Cl)cc1` [Compound I-11, 4-[(1S,4R,5R)-5-{[4-cyclopropyl-1-(2,6-dichlorophenyl)-1H-pyrazol-5-yl]methoxy}-3-oxo-2-azabicyclo[2.2.1]heptan-2-yl]benzoic acid], the Emax is 152% and the EC50 is 39.8 nM.
Taken in the same sequence, the figures for `O=C(O)c1ccc(N2C(=O)[C@@H]3C[C@H]2C[C@H]3OCc2c(C3CC3)cnn2-c2c(Cl)cccc2Cl)cc1F` [Compound I-12, 4-[(1S,4R,5R)-5-{[4-cyclopropyl-1-(2,6-dichlorophenyl)-1H-pyrazol-5-yl]methoxy}-3-oxo-2-azabicyclo[2.2.1]heptan-2-yl]-2-fluorobenzoic acid] were 176% and 39.8 nM.
As to `O=C(O)c1ccc(N2C(=O)[C@@H]3C[C@H]2C[C@H]3OCc2c(C3CC3)cnn2-c2c(Cl)cccc2Cl)c(F)c1` [Compound I-13, 4-[(1S,4R,5R)-5-{[4-cyclopropyl-1-(2,6-dichlorophenyl)-1H-pyrazol-5-yl]methoxy}-3-oxo-2-azabicyclo[2.2.1]heptan-2-yl]-3-fluorobenzoic acid], the Emax amounted to 142% and the EC50 is 158 nM.
Turning to `C[C@@H]1[C@@H]2C[C@@H](C[C@H]2OCc2c(C3CC3)cnn2-c2c(Cl)cccc2Cl)N1c1ccc(C(=O)O)cc1` [Compound I-14, 4-[(1S,3R,4S,5R)-5-{[4-cyclopropyl-1-(2,6-dichlorophenyl)-1H-pyrazol-5-yl]methoxy}-3-methyl-2-azabicyclo[2.2.1]heptan-2-yl]benzoic acid], the Emax was 48% and the EC50 is 398 nM.
For `C[C@@H]1[C@@H]2C[C@@H](C[C@H]2OCc2c(C3CC3)cnn2-c2c(Cl)cccc2Cl)N1c1ccc(C(=O)O)c(F)c1` [Compound I-15, 4-[(1S,3R,4S,5R)-5-{[4-cyclopropyl-1-(2,6-dichlorophenyl)-1H-pyrazol-5-yl]methoxy}-3-methyl-2-azabicyclo[2.2.1]heptan-2-yl]-2-fluorobenzoic acid] the same measures were 44% and 1000 nM.
`CC[C@@H]1[C@@H]2C[C@@H](C[C@H]2OCc2c(C3CC3)cnn2-c2c(Cl)cccc2Cl)N1c1ccc(C(=O)O)cc1` [Compound I-16, 4-[(1S,3R,4S,5R)-5-{[4-cyclopropyl-1-(2,6-dichlorophenyl)-1H-pyrazol-5-yl]methoxy}-3-ethyl-2-azabicyclo[2.2.1]heptan-2-yl]benzoic acid]: the Emax was 52% and the EC50 is 1000 nM.
Turning to `CC[C@H]1[C@H]2C[C@H](C[C@@H]2OCc2c(C3CC3)cnn2-c2c(Cl)cccc2Cl)N1c1ccc(C(=O)O)cc1` [Compound I-17, 4-[(1R,3S,4R,5S)-5-{[4-cyclopropyl-1-(2,6-dichlorophenyl)-1H-pyrazol-5-yl]methoxy}-3-ethyl-2-azabicyclo[2.2.1]heptan-2-yl]benzoic acid], the Emax was 15%.
The same measure, in the same setting: to `CC[C@@H]1[C@@H]2C[C@@H](C[C@H]2OCc2c(C3CC3)cnn2-c2c(Cl)cccc2Cl)N1c1ccc(C(=O)O)c(F)c1` [Compound I-18, 4-[(1S,3R,4S,5R)-5-{[4-cyclopropyl-1-(2,6-dichlorophenyl)-1H-pyrazol-5-yl]methoxy}-3-ethyl-2-azabicyclo[2.2.1]heptan-2-yl]-2-fluorobenzoic acid] belongs 47%; to `CC[C@H]1[C@H]2C[C@H](C[C@@H]2OCc2c(C3CC3)cnn2-c2c(Cl)cccc2Cl)N1c1ccc(C(=O)O)c(F)c1` [Compound I-19, 4-[(1R,3S,4R,5S)-5-{[4-cyclopropyl-1-(2,6-dichlorophenyl)-1H-pyrazol-5-yl]methoxy}-3-ethyl-2-azabicyclo[2.2.1]heptan-2-yl]-2-fluorobenzoic acid], 30%.
`CC1(C)CC(S(=O)(=O)NC(=O)c2ccc(N3C[C@@H]4C[C@H]3C[C@H]4OCc3c(C4CC4)cnn3-c3c(Cl)cccc3Cl)cc2)CCO1` (stereo partly drawn) [Compound I-21, 4-[(1S,4S,5R)-5-{[4-cyclopropyl-1-(2,6-dichlorophenyl)-1H-pyrazol-5-yl]methoxy}-2-azabicyclo[2.2.1]heptan-2-yl]-N-[(2,2-dimethyloxan-4-yl)sulfonyl]benzamide]: the Emax is 174% and the EC50 is 1.58 nM.
Regarding `O=C(NS(=O)(=O)C1CC1)c1ccc(N2C[C@@H]3C[C@H]2C[C@H]3OCc2c(C3CC3)cnn2-c2c(Cl)cccc2Cl)cc1` [Compound I-22, 4-((1S,4S,5R)-5-((4-cyclopropyl-1-(2,6-dichlorophenyl)-1H-pyrazol-5-yl)methoxy)-2-azabicyclo[2.2.1]heptan-2-yl)-N-(cyclopropylsulfonyl)benzamide], the Emax was determined as 166% and the EC50 was 3.98 nM.
Taken in the same sequence, the figures for `O=C(NS(=O)(=O)C1CCOCC1)c1ccc(N2C[C@@H]3C[C@H]2C[C@H]3OCc2c(C3CC3)cnn2-c2c(Cl)cccc2Cl)cn1` [Compound I-25, 5-((1S,4S,5R)-5-((4-cyclopropyl-1-(2,6-dichlorophenyl)-1H-pyrazol-5-yl)methoxy)-2-azabicyclo[2.2.1]heptan-2-yl)-N-((tetrahydro-2H-pyran-4-yl)sulfonyl)picolinamide] were 130% and 25.1 nM.
Regarding `O=C(NS(=O)(=O)C1CCOCC1)c1ccc(N2C(=O)[C@@H]3C[C@H]2C[C@H]3OCc2c(C3CC3)cnn2-c2c(Cl)cccc2Cl)cc1` [Compound I-26, 4-((1S,4R,5R)-5-((4-cyclopropyl-1-(2,6-dichlorophenyl)-1H-pyrazol-5-yl)methoxy)-3-oxo-2-azabicyclo[2.2.1]heptan-2-yl)-N-((tetrahydro-2H-pyran-4-yl)sulfonyl)benzamide], the Emax turned out to be 169% and the EC50 was 10 nM.
For `O=C(NS(=O)(=O)C1CCOCC1)c1ccc(N2C(=O)[C@@H]3C[C@H]2C[C@H]3OCc2c(C3CC3)cnn2-c2c(Cl)cccc2Cl)cc1F` [Compound I-27, 4-((1S,4R,5R)-5-((4-cyclopropyl-1-(2,6-dichlorophenyl)-1H-pyrazol-5-yl)methoxy)-3-oxo-2-azabicyclo[2.2.1]heptan-2-yl)-2-fluoro-N-((tetrahydro-2H-pyran-4-yl)sulfonyl)benzamide] the same measures were 185% and 5.01 nM.

The record behind these values is patent publication US11753410B2, “Hormone receptor modulators for treating metabolic mutagenic and fibrotic conditions and disorders” (priority 2017, dated 2023).
